Measured values from patent publication US20060235020A1, “Process for preparing salts of 4-[[5-[(cyclopropylamino)carbonyl]-2-methylphenyl]amino]-5-methyl-N-propylpyrrolo[2,1-f][1,2,4]triazine-6-carboxamide and novel stable forms produced therein” (priority 2005, published 2006).
Like-named read-outs stand apart in the source and are kept apart here.

Tests used:
[1] = Experimental: Moisture sorption isotherms were collected in a VTI SGA-100 Symmetric Vapor Analyzer using approximately 10 mg of sample. The sample was dried at 60° C. until the loss rate of 0.0005 wt %/min was obtained for 10 minutes. The sample was tested at 25° C. (for free base 1 and N-1 HCl salt) or 30° C. (for N-4 HCl salt) and 3 or 4, 5, 15, 25, 35, 45, 50, 65, 75, 85, and 95% RH. Equilibration at each RH was reached when the rate of 0.0003 wt %/min for 35 minutes was achieved or a maximum of 600 minutes.
[2] = Stability of the crystals in the solid state; format: physicochemical; settings: isolated solid
[3] = slurries in THF, acetonitrile, acetone and DMF/acetone at room temperature

Row | Compound | hygroscopicity / water uptake (moisture-sorption isotherm) ([1]; about 25 to about 75% RH at 25° C.) | hygroscopicity / water uptake (moisture-sorption isotherm) ([1]; about 25 to about 75% RH at 25° C., listed as Form N-1 crystals of the hydrochloric acid salt of free base I) | stability in the solid state form [2] | relative stability of the crystal form in slurries ([3]; listed as Form N-1) | hygroscopicity / water uptake (moisture-sorption isotherm) ([1]; about 25 to about 75% RH at 30° C.) | hygroscopicity / water uptake (moisture-sorption isotherm) ([1]; about 25 to about 75% RH at 30° C., listed as Form N-4 crystals of free base I) | relative stability of the crystal form in slurries ([3]; listed as Form N-4)
1 | CCCNC(=O)c1cn2ncnc(Nc3cc(C(=O)NC4CC4)ccc3C)c2c1C.Cl [Form N-1 hydrochloride salt, hydrochloric acid salt of 4-[[5-[(cyclopropylamino)carbonyl]-2-methylphenyl]amino]-5-methyl-N-propylpyrrolo[2,1-f][1,2,4]triazine-6-carboxamide] | non-hygroscopic | negligible water uptake | remain stable in the solid state form | convert to Form N-4 |  |  | 
2 | CCCNC(=O)c1cn2ncnc(Nc3cc(C(=O)NC4CC4)ccc3C)c2c1C.Cl [Form N-4 salt, hydrochloric acid salt of 4-[[5-[(cyclopropylamino)carbonyl]-2-methylphenyl]amino]-5-methyl-N-propylpyrrolo[2,1-f][1,2,4]triazine-6-carboxamide] |  |  |  |  | non-hygroscopic | negligible water uptake | stable form at room temperature
